In US10988482B2, “IRAK4 inhibitor and use thereof” (BEIJING HANMI PHARMACEUTICAL CO., LTD., priority 2015, dated 2021):

Tests used:
TMD-8 cells = assay: TMD-8 cell growth inhibition assay (CCK-8); type: cell-based; details: Homo sapiens, TMD8, 96 hours
Protocol: The compounds of Examples 9, 98 and 105 of the invention were tested in TMD-8 cell growth inhibition assay. TMD-8 cells (available from Korea Hanmi Research Center) were cultured in RMPI-1640 medium (purchased from Gibco, Cat. No.: 22440) containing 10% fetal bovine serum (purchased from Gibco, Cat. No.: 10099-141). The TMD-8 cells in logarithmic growth phase were seeded in a 96-well plate at 20,000 cells/well/100 μL, and RMPI-1640 medium (100 μL) was added into blank control wells. The test samples were diluted with RMPI-1640 medium to 2 folds of the final concentration (10-fold dilutions starting from 10 μM, setting 6 drug concentrations, and testing in replicate wells at each concentration). The diluted test samples were added to test wells seeded with cells at 100 μL/well, and RMPI-1640 medium (100 μL) was separately added to the positive control wells and the blank control wells. The 96-well plate was placed in the incubator and reacted at 37° C., 5% CO2 for 96 hours. After the reaction was completed, the 96-well plate was taken from the incubator and to each well was added CCK-8 (100 μL) (purchased from DOJINDO, Cat. No.: CK04-11). Then the 96-well plate was put back to the incubator and incubated for another 2 hours. The light absorbance was measured at 450 nm, and the IC50 values were calculated therefrom.

IRAK4 kinase = IRAK4 kinase (Homo sapiens (Human), UniProt Q9NWZ3); assay: IRAK4 kinase activity inhibition assay (ADP-Glo); type: biochemical; details: 10 μM ATP, MBP substrate, 60 min at 25° C.
IRAK4 kinase, sequence (Q9NWZ3 whole entry): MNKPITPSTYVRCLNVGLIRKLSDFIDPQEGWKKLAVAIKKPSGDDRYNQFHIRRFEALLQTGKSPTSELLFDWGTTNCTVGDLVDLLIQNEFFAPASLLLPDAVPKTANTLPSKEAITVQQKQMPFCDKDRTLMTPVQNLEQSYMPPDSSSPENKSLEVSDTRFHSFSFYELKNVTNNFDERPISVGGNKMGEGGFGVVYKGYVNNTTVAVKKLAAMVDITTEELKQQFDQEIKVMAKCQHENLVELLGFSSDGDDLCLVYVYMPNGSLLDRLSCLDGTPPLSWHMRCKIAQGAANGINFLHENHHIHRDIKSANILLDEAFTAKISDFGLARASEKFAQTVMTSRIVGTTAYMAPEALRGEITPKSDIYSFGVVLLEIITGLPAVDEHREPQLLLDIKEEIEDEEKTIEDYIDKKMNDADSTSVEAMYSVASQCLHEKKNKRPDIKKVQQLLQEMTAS
Protocol: IRAK4 kinase (purchased from Life Technologies, Cat. No.: PR5612U) was diluted to 2 folds of the final concentration (the final concentration is 0.76 ng/μL) with reaction buffer (40 mM Tris-HCl, pH 7.5; 20 mM MgCl2; 0.1 mg/mL BSA; 1 mM DTT), and added to a 384-well plate at 5 μL/well. The test drugs were 10-fold serial diluted from 10 μM to set six concentration points and added to the test wells of the 384-well plate at 2.5 μL/well. After incubation for 10 min at 25° C., 10 μM of ATP and […] of an enzyme reaction substrate, myelin basic protein MBP (purchased from SignalChem, Cat. No.: M42-51N) were added at 2.5 µL/well, and reacted at 25° C. for 60 minutes. After the reaction was completed, the kinase activity assay was performed using the ADP-Glo™ kinase assay kit (purchased from Promega, Cat. No.: V9102) according to the manufacture's instruction, i.e., 10 μL of ADP-Glo reaction reagent was first added and reacted at 25° C. for 40 minutes, 10 μL of the solution to be tested was taken and mixed with 10 μL of ADP-Glo detection reagent, and reacted at 25° C. for 30 minutes. The kinase activity was then detected, and the IC50 values of the test drugs were calculated.

[1] = test system: TNF-α secretion in THP-1 cells; assay: LPS-induced TNF-α secretion assay in THP-1 cells (ELISA); type: cell-based; details: Homo sapiens; LPS-induced TNF-α secretion in THP-1 cells, 2 hours pre-incubation, 24 hours LPS
Protocol: The compounds of Examples 9, 98 and 105 of the invention were tested in LPS-induced TNF-α secretion assay in THP-1 cells. Human THP-1 cells (purchased from ATCC, Cat. No.: TIB-202) were cultured in RPMI-1640 medium (purchased from Gibco, Cat. No.: 22440) containing 10% fetal bovine serum (purchased from Gibco, Cat. No.: 10099-141) and 0.05 mM of 2-mercaptoethanol (purchased from Gibco, Cat. No.: 21985). The THP-1 cells in logarithmic growth phase were seeded in a 96-well plate at 2×10^5 cells/well/100 μL. The test samples were diluted with RMPI-1640 medium to 4 folds of the final concentration (5-fold dilutions starting from 10 μM, setting 6 drug concentrations, and testing in replicate wells at each concentration). The diluted test samples were added to the test wells seeded with cells at 50 μL/well, and RMPI-1640 medium (50 μL) was separately added to positive control and negative control wells. The 96-well plate was placed in the incubator at 37° C., 5% CO2 and pre-incubated for 2 hours. The 96-well plate was taken out, and 400 ng/mL of LPS (50 μL) (purchased from Sigma, Cat. No.: L6529-1MG) was added to each well of the test wells and the positive control wells, and RMPI-1640 medium (50 μL) was added to the negative control wells. After incubation in the incubator at 37° C., 5% CO2 for 24 hours, the cell culture supernatant was taken and determined for the content of TNF-α in the supernatant using a human TNF-α ELISA kit (purchased from DKW, Cat. No.: 12-1720-096).

Row | IC50 (IRAK4 kinase) | IC50 [1] | Compound | IC50 (TMD-8 cells)
1 | ≤ 100 nM | ≤ 500 nM | Cc1cc(Nc2nc(N[C@H]3CC[C@](C)(O)CC3)c3sccc3n2)sn1 [Compound 9] | ≤ 500 nM
2 | 1000 to 10000 nM | – | C[C@]1(O)CC[C@H](Nc2nc(Nc3cccc(CC(N)=O)c3)nc3ccsc23)CC1 [Compound 72] | –
3 | 100 to 1000 nM | – | CN1CCN(c2cccc(Nc3nc(N[C@H]4CC[C@](C)(O)CC4)c4sccc4n3)c2)CC1 [Compound 73] | –
4 | 1000 to 10000 nM | – | CN1CCN(c2ccc(Nc3nc(N[C@H]4CC[C@](C)(O)CC4)c4sccc4n3)cc2)CC1 [Compound 74] | –
5 | 1000 to 10000 nM | – | CN1CCN(Cc2cc(Nc3nc(N[C@H]4CC[C@](C)(O)CC4)c4sccc4n3)sn2)CC1 [Compound 75] | –
6 | 100 to 1000 nM | – | Cc1cc(Nc2nc(N[C@H]3CC[C@H](O)CC3)c3occc3n2)sn1 [Compound 76, trans-4-((2-((3-methylisothiazol-5-yl)amino)furo[3,2-d]pyrimidin-4-yl)amino)cyclohexanol] | –
7 | ≤ 100 nM | – | Cc1cc(Nc2nc(N[C@H]3C[C@H](N)C3)c3sccc3n2)sn1 [Compound 77, N^4-(trans-3-aminocyclobutyl)-N^2-(3-methylisothiazol-5-yl)thieno[3,2-d]pyrimidine-2,4-diamine] | –
8 | ≤ 100 nM | – | Cc1cc(Nc2nc(N[C@H]3C[C@@H](N)C3)c3sccc3n2)sn1 [Compound 78] | –
9 | ≤ 100 nM | – | Cc1cc(Nc2nc(N[C@H]3CC[C@@H](N)CC3)c3sccc3n2)sn1 [Compound 79] | –
10 | 100 to 1000 nM | – | Cc1cc(Nc2nc(N[C@H]3CC[C@H](N)CC3)c3sccc3n2)sn1 [Compound 80] | –
11 | 100 to 1000 nM | – | Cc1cc(Nc2nc(O[C@H]3CC[C@@H](N)C3)c3sccc3n2)sn1 [Compound 81] | –
12 | 100 to 1000 nM | – | Cc1cc(Nc2nc(O[C@H]3CC[C@@H](N)CC3)c3sccc3n2)sn1 [Compound 82] | –
13 | ≤ 100 nM | – | Cc1cc(Nc2nc(O[C@H]3CC[C@H](N)CC3)c3sccc3n2)sn1 [Compound 83] | –
14 | 100 to 1000 nM | – | Cn1cc(Nc2nc(N[C@H]3CC[C@@H](N)CC3)c3sccc3n2)cn1 [Compound 84] | –
15 | 100 to 1000 nM | – | Cn1cc(Nc2nc(O[C@H]3CC[C@@H](N)C3)c3sccc3n2)cn1 [Compound 85] | –
16 | 100 to 1000 nM | – | CN[C@H]1C[C@H](Nc2nc(Nc3cc(C)ns3)nc3ccsc23)C1 [Compound 86, N^4-(trans-3-(methylamino)cyclobutyl)-N^2-(3-methylisothiazol-5-yl)thieno[3,2-d]pyrimidine-2,4-diamine] | –
17 | 100 to 1000 nM | – | CN[C@H]1C[C@@H](Nc2nc(Nc3cc(C)ns3)nc3ccsc23)C1 [Compound 87] | –
18 | 100 to 1000 nM | – | CN[C@H]1CC[C@@H](Nc2nc(Nc3cc(C)ns3)nc3ccsc23)CC1 [Compound 88] | –
19 | 100 to 1000 nM | – | CN[C@H]1CC[C@H](Nc2nc(Nc3cc(C)ns3)nc3ccsc23)CC1 [Compound 89] | –

Row | IC50 (IRAK4 kinase) | IC50 [1] | Compound | IC50 (TMD-8 cells)
20 | 100 to 1000 nM | – | CN[C@H]1CC[C@@H](Oc2nc(Nc3cc(C)ns3)nc3ccsc23)CC1 [Compound 90] | –
21 | ≤ 100 nM | – | Cc1cc(Nc2nc(N[C@H]3CC[C@H](N(C)C)CC3)c3sccc3n2)sn1 [Compound 91, N^4-(trans-4-(dimethylamino)cyclohexyl)-N^2-(3-methylisothiazol-5-yl)thieno[3,2-d]pyrimidine-2,4-diamine] | –
22 | 100 to 1000 nM | – | Cc1cc(Nc2nc(N[C@H]3CC[C@@H](N(C)C)CC3)c3sccc3n2)sn1 [Compound 92] | –
23 | 100 to 1000 nM | – | CCN(CC)[C@H]1CC[C@@H](Nc2nc(Nc3cc(C)ns3)nc3ccsc23)CC1 [Compound 93] | –
24 | ≤ 100 nM | – | CCN(CC)[C@H]1CC[C@H](Nc2nc(Nc3cc(C)ns3)nc3ccsc23)CC1 [Compound 94] | –
25 | ≤ 100 nM | – | Cc1cc(Nc2nc(O[C@H]3CC[C@@H](N(C)C)CC3)c3sccc3n2)sn1 [Compound 95] | –
26 | ≤ 100 nM | – | Cc1cc(Nc2nc(O[C@H]3CC[C@H](N(C)C)CC3)c3sccc3n2)sn1 [Compound 96] | –
27 | ≤ 100 nM | – | Cc1cc(Nc2nc(N[C@H]3CC[C@H](N(CCO)CCO)CC3)c3sccc3n2)sn1 [Compound 97] | –
28 | ≤ 100 nM | ≤ 500 nM | Cc1cc(Nc2nc(N[C@H]3CC[C@H](N4CCCCC4)CC3)c3sccc3n2)sn1 [Compound 98, N^4-(trans-4-(piperidin-1-yl)cyclohexyl)-N^2-(3-methylisothiazol-5-yl)thieno[3,2-d]pyrimidine-2,4-diamine] | ≤ 500 nM
29 | ≤ 100 nM | – | Cc1cc(Nc2nc(N[C@H]3CC[C@H](N4CCCC4)CC3)c3sccc3n2)sn1 [Compound 99] | –
30 | ≤ 100 nM | – | Cc1cc(Nc2nc(N[C@H]3CC[C@H](N4CCOCC4)CC3)c3sccc3n2)sn1 [Compound 100] | –
31 | ≤ 100 nM | – | Cc1cc(Nc2nc(O[C@H]3CC[C@H](N4CCCC4)CC3)c3sccc3n2)sn1 [Compound 101] | –
32 | ≤ 100 nM | – | Cc1cc(Nc2nc(O[C@H]3CC[C@H](N4CCCCC4)CC3)c3sccc3n2)sn1 [Compound 102] | –
33 | 100 to 1000 nM | – | Cc1cc(Nc2nc(O[C@H]3CC[C@H](N4CCOCC4)CC3)c3sccc3n2)sn1 [Compound 103] | –
34 | ≤ 100 nM | – | Cc1cc(Nc2nc(N[C@H]3CC[C@H](O)CC3)c3c(ccn3C)n2)sn1 [Compound 104, trans-4-((5-methyl-2-((3-methylisothiazol-5-yl)amino)-5H-pyrrolo[3,2-d]pyrimidin-4-yl)amino)cyclohexanol] | –
35 | ≤ 100 nM | ≤ 500 nM | COCCCn1ccc2nc(Nc3cc(C)ns3)nc(N[C@H]3CC[C@H](N4CCCCC4)CC3)c21 [Compound 105, 5-(3-methoxylpropyl)-N^4-(trans-4-(piperidin-1-yl)cyclohexyl)-N^2-(3-methylisothiazol-5-yl)-5H-pyrrolo[3,2-d]pyrimidine-2,4-diamine] | ≤ 500 nM
36 | 100 to 1000 nM | – | Cc1cc(Nc2nc(N[C@H]3CC[C@](C)(O)CC3)c3c(ccn3Cc3cccnc3)n2)sn1 [Compound 106] | –
37 | ≤ 100 nM | – | Cc1cc(Nc2nc(N[C@H]3CC[C@H](N4CCCCC4)CC3)c3c(ccn3CCCC#N)n2)sn1 [Compound 107] | –
38 | ≤ 100 nM | – | Cc1cc(Nc2nc(N[C@H]3CC[C@H](N4CCCCC4)CC3)c3c(ccn3CCC(N)=O)n2)sn1 [Compound 108] | –

Row | Compound | IC50 (IRAK4 kinase) | IC50 [1] | IC50 (TMD-8 cells)
39 | CN1CCC(N(C)c2ccc(Nc3nc(N[C@H]4CC[C@H](O)CC4)c4sccc4n3)cc2)CC1 [Compound 70] | 100 to 1000 nM | – | –
